Patent US20140024582A1, “STABLE INSULIN FORMULATIONS AND METHODS OF MAKING AND USING THEREOF” (Genecopoeia, Inc., priority 2010, published 2014)
Like-named read-outs stand apart in the source and are kept apart here.

Experiments:
Format in all cases: physicochemical
[1] = Total degradation products of porcine insulin formulations by C18 reverse-phase HPLC
Description: Six test formulations were prepared at proline concentrations of 0, 1.6 M and 2.8 M with acetone concentrations at 0 and 3 mg/ml, as listed in the following table. Those test formulations were stored at room temperature in the dark. At times, aliquots were withdrawn to be analyzed on C18 reverse-phase HPLC to measure total degradation products, as summarized in the table below.

[2] = Visual precipitation of insulin solutions stored at room temperature in the dark
Description: Insulin was dissolved in 0.10 N hydrochloric acid (5 μL per milligram of insulin) and made into a series of solutions at its concentration of 4.0 mg/ml with various additives, and the pH was adjusted to pH 7.4 using 0.05 N sodium hydroxide. Samples were kept at room temperature (25° C.) in the dark.
Zinc-free recombinant human insulin (16 mg) was dissolved in 0.10 N hydrochloric acid (70 microliters), and to this insulin was added 6.0 ml of the above proline solution. This stock solution was further made into a series of solutions at its concentration of 2.0 mg/ml with various additives at pH 7.4. Samples were kept at room temperature (25° C.) in the dark.
After six months, there were no precipitates visible at the bottom, and the solutions were all visually clear. As shown in Example 1 above, insulin without proline forms precipitates in a few days.
Repeat preparation as in Example 2 at proline concentration of 1.0 M, 1.5 M, 2.4 M and 7.0 M, without glycerol and m-cresol. All samples were stored at room temperature in the dark over six month to find no visible insulin precipitate.

[3] = Covalent insulin dimers quantified by SEC HPLC during storage; conditions: zinc-free insulin and zinc-insulin with EDTA, Example 4
Description: A group of stock solutions were prepared: proline (6.25 M) in water, EDTA (0.10 M, pH 7.4), glycerol(320 mg/ml) containing m-Cresol (25 mg/ml) in water, sodium insulin(10 mg/ml) in phosphate buffer (25 mM, pH 7.4). Eight formulations were prepared using those stock solutions as in the table below.
All the eight formulations were kept at room temperature in the dark. At times, aliquots were withdrawn for HPLC analysis (Injection volume: 0.10 ml).
During the storage, covalent insulin dimers were quantified by SEC HPLC, and the results are summarized below.
Column: Protein Pak, 125 Å, Waters, WAT084601
Mobile Phase: 20% Acetonitrile, 15% acetic acid, 65% water

CC(C)=O [acetone]
Effect on total amount of degradation side products ([1]; porcine insulin, period of 8 weeks, Example 5): further enhances the stabilizing effect of proline

N=C(N)NCCC[C@H](N)C(=O)O [arginine]
Effect of arginine on precipitation of monomeric insulin ([2]; arginine at 0.5 M, Example 1): has ability to deter monomeric insulin from precipitation

O=C(O)[C@@H]1CCCN1 [proline]
Effect on formation of high molecular weight insulin degradation side products [3]: reduces formation of high molecular weight insulin degradation side products
Effect of proline on precipitation of monomeric insulin ([2]; proline 2.4 M, Example 2): ability to deter monomeric insulin from precipitation
Effect on total amount of degradation side products [1]: reduces total amount of degradation side products
